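48-hour exposure; five concentrations; linearly interpolated endpoints. At the GI50, growth is halved.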 The source made the active and inactive calls. Cut-off read from the data, not from the text of the source: active = GI50 up to about 1.1 µM and inactive = higher.

Some test systems named below: MOLT-4; UO-31; HL-60; SK-MEL-28; HCT-15; IGROV-1; CCRF-CEM; SF-268; OVCAR-3; OVCAR-8; SR; UACC-257; K562; SF-295; LOX IMVI; RXF 393; SNB-19; SK-MEL-2; A549; U-251.
What all share (assay): inhibition of tumour cell growth, NCI panel, 48 h

Consider `CC(=O)CCn1[nH]c(=O)c(Cl)c(Cl)c1=O`, for which the GI50 was > 100 µM (inactive) with MOLT-4; > 100 µM (inactive) with UO-31; > 100 µM (inactive) in the test on HL-60; > 100 µM (inactive) with SK-MEL-28; > 100 µM in the test on HCT-15; > 100 µM (inactive) in the test with IGROV-1. The GI50 in the test on CCRF-CEM, in the test on SF-268, with OVCAR-3, in the test with OVCAR-8, with SR and in the test on UACC-257 was > 100 µM (inactive) in each case. Also, the GI50 is > 100 µM (inactive) with K562; > 100 µM (inactive) with SF-295; > 100 µM (inactive) in the test on LOX IMVI; > 100 µM (inactive) in the test with RXF 393; 15.3 µM (inactive) in the test with SNB-19; > 100 µM (inactive) in the test on SK-MEL-2. For the same compound, the GI50 with A549 was > 100 µM (inactive).
For the compound `COC1(CC[C@@H](C)COC2OC(CO)C(O)C(O)C2O)OC2C[C@H]3[C@@H]4CC[C@H]5C[C@@H](OC6OC(CO)C(OC7OC(CO)C(O)C(O)C7O)C(O)C6OC6OC(C)C(O)C(O)C6O)[C@H](O)C[C@]5(C)[C@H]4CC[C@]3(C)C2[C@@H]1C` (some centres not stated), the GI50 in the test on U-251 is 1.87 µM (inactive); in the test with MOLT-4 it was 2.58 µM (inactive); with UO-31, 1.79 µM (inactive); in the test with HL-60 it was 2.32 µM (inactive); in the test on SK-MEL-28, 1.88 µM (inactive); in the test with IGROV-1 it was 1.74 µM (inactive). Besides, the GI50 was 1.88 µM (inactive) in the test on CCRF-CEM; 2.07 µM (inactive) in the test on SF-268; 1.82 µM (inactive) in the test with OVCAR-3; 1.99 µM (inactive) in the test on OVCAR-8; 2.77 µM (inactive) with SR; 1.97 µM (inactive) with UACC-257. Further, the GI50 in the test on K562 was 2.37 µM (inactive); in the test on SF-295, 1.8 µM (inactive); with LOX IMVI, 1.79 µM (inactive); in the test on RXF 393 it was 2.04 µM (inactive); in the test on SNB-19 it was 1.87 µM (inactive); in the test with SK-MEL-2, 2.12 µM (inactive). In addition, the GI50 with A549 was 1.92 µM (inactive).
In the case of `Cc1cc(N(CCC#N)CCC#N)ccc1/N=N/c1ccc([N+](=O)[O-])cc1`, the GI50 in the test with U-251 was 18.6 µM (inactive); in the test on MOLT-4, > 100 µM (inactive); in the test with UO-31, > 100 µM (inactive); in the test on HL-60, > 100 µM (inactive); in the test on SK-MEL-28, > 100 µM (inactive); in the test on HCT-15, 39.4 µM. The GI50 in the test on CCRF-CEM is > 100 µM (inactive); in the test on SF-268 it was > 100 µM (inactive); in the test with OVCAR-3, 47.2 µM (inactive); with OVCAR-8, 23 µM (inactive); in the test on SR, > 100 µM (inactive); in the test with UACC-257 it was > 100 µM (inactive). The GI50 with K562 was > 100 µM (inactive); in the test on SF-295 it was 56.4 µM (inactive); in the test with LOX IMVI, 25.1 µM (inactive); in the test with RXF 393 it was 32.5 µM (inactive); with SNB-19, 22 µM (inactive); in the test with SK-MEL-2, > 100 µM (inactive). Moreover, in the test on A549, the GI50 is > 100 µM (inactive).
`CCOC(=O)C(=O)Nc1c(C)cccc1CC`: the GI50 in the test with U-251, in the test with MOLT-4, in the test with UO-31, in the test on HL-60, with SK-MEL-28 and with IGROV-1 was > 100 µM (inactive) throughout. For the same compound, the GI50 in the test with CCRF-CEM, with SF-268, with OVCAR-3, with OVCAR-8, with SR and in the test on UACC-257 was > 100 µM (inactive) throughout. For the same compound, the GI50 with K562, in the test on SF-295, with LOX IMVI, with RXF 393, in the test with SNB-19 and in the test with SK-MEL-2 was > 100 µM (inactive) in each case. The GI50 in the test on A549 was > 100 µM (inactive).
In the case of `c1ccc(-c2nc3ccccc3n3nnnc23)cc1`, the GI50 was > 100 µM (inactive) in the test on U-251; > 100 µM (inactive) in the test on MOLT-4; 0.424 µM (active) in the test with UO-31; > 100 µM (inactive) in the test with HL-60; > 100 µM (inactive) in the test on SK-MEL-28; > 100 µM in the test on HCT-15. The GI50 in the test with IGROV-1 was > 100 µM (inactive); in the test on CCRF-CEM, > 100 µM (inactive); in the test with SF-268, 75.7 µM (inactive); with OVCAR-3, > 100 µM (inactive); with SR it was > 100 µM (inactive); in the test with UACC-257, > 100 µM (inactive). Also, the GI50 is > 100 µM (inactive) with K562; > 100 µM (inactive) with LOX IMVI; 52.1 µM (inactive) with RXF 393; 75.7 µM (inactive) in the test with SNB-19; > 100 µM (inactive) with SK-MEL-2; > 100 µM (inactive) with A549.
As to `[N-]=[N+]=NC1=C(c2ccccc2)C(=O)c2cccc3cccc1c23`, the GI50 with U-251 was > 100 µM (inactive); in the test with MOLT-4, 2.55 µM (inactive); in the test with UO-31, 26.1 µM (inactive); with HL-60, 16.6 µM (inactive); with SK-MEL-28, 33.3 µM (inactive); in the test with HCT-15, 17.8 µM. The GI50 in the test with IGROV-1 is 15 µM (inactive); in the test with CCRF-CEM it was 4.85 µM (inactive); in the test with SF-268, 22.3 µM (inactive); with OVCAR-3, 16.4 µM (inactive); in the test with SR it was 11.4 µM (inactive); in the test with UACC-257, 12.9 µM (inactive). In addition, the GI50 in the test on K562 was 7.13 µM (inactive); in the test with SF-295, 11.2 µM (inactive); in the test with LOX IMVI it was 14.4 µM (inactive); in the test on RXF 393 it was 19.7 µM (inactive); in the test on SNB-19, 38.9 µM (inactive); with SK-MEL-2, 65 µM (inactive). For the same compound, in the test on A549, the GI50 is 11.9 µM (inactive).
On to `Cc1ccc(S(=O)(=O)Oc2ccc(OS(=O)(=O)c3ccc(C)cc3)c3c2C(=O)c2ccccc2C3=O)cc1`, for which the GI50 in the test with U-251 was > 100 µM (inactive); in the test with MOLT-4 it was > 100 µM (inactive); in the test on UO-31, 33.8 µM (inactive); in the test on HL-60, > 100 µM (inactive); in the test on SK-MEL-28 it was > 100 µM (inactive); with HCT-15 it was > 100 µM. The GI50 in the test with IGROV-1, in the test with CCRF-CEM, with SF-268, with OVCAR-3, with OVCAR-8 and in the test with SR was > 100 µM (inactive) throughout. The GI50 with UACC-257 is > 100 µM (inactive); in the test on K562, > 100 µM (inactive); in the test on LOX IMVI, > 100 µM (inactive); in the test on RXF 393, 23.6 µM (inactive); in the test on SNB-19, 54.6 µM (inactive); in the test with SK-MEL-2 it was > 100 µM (inactive). The GI50 in the test on A549 was > 100 µM (inactive).

The values above are taken from ChEMBL document CHEMBL1201862, “PubChem BioAssay data set” (2004).
